# Results: ChEMBL document CHEMBL5226378, “Transformation of Renieramycin M into Renieramycins T and S by Intramolecular Photoredox Reaction of 7-Methoxy-6-methyl-1,2,3,4-tetrahydroisoquinoline-5,8-dione Derivatives” (J Nat Prod, 2023)
# Experiments:
# HCT-116 = experiment: Cytotoxicity against human HCT-116 cells assessed as inhibition of cell growth incubated for 4 days by CCK-8 assay; assay type: functional, cell-based; details: HCT-116, 96 h
# DU-145 = experiment: Cytotoxicity against human DU-145 cells assessed as inhibition of cell growth incubated for 4 days by CCK-8 assay; assay type: functional, cell-based; details: DU-145, 96 h
SMILES,IC50 (HCT-116) [µM],IC50 (DU-145) [µM]
COC1=C(C)C(=O)C2=C(C1=O)[C@@H]1[C@@H]3CC4=C(C(=O)C(OC)=C(C)C4=O)[C@H](CNC(=O)C(C)=O)N3[C@@H](C#N)[C@H](C2)N1C [SAFRAMYCIN A],0.02,0.008
C/C=C(/C)C(=O)OC[C@H]1c2c(c(O)c(C)c3c2OCO3)C[C@H]2[C@H]3C4=C(C[C@@H]([C@H](C#N)N12)N3C)C(=O)C(C)=C(OC)C4=O,0.082,0.05
COC1=C(C)C(=O)C2=C(C1=O)[C@@H]1[C@@H]3Cc4c(OC(C)=O)c(C)c5c(c4[C@H](CNC(=O)C(C)=O)N3[C@@H](C#N)[C@H](C2)N1C)OCO5,0.027,0.006
COC1=C(C)C(=O)C2=C(C1=O)[C@@H]1[C@@H]3CC4=C(C(=O)C(O)=C(C)C4=O)[C@H](CNC(=O)C(C)=O)N3[C@@H](C#N)[C@H](C2)N1C,1.2,0.68
C/C=C(/C)C(=O)OC[C@H]1C2=C(C[C@H]3CN(C)C[C@H](C#N)N31)C(=O)C(C)=C(OC)C2=O,2.2,7.3
COC1=C(C)C(=O)C2=C(C1=O)[C@@H]1[C@@H]3Cc4c(O)c(C)c5c(c4[C@H](CNC(=O)C(C)=O)N3[C@@H](C#N)[C@H](C2)N1C)OCO5,0.23,0.14
C/C=C(/C)C(=O)OC[C@H]1C2=C(C[C@H]3[C@H]4C5=C(C[C@@H]([C@H](C#N)N13)N4C)C(=O)C(C)=C(OC)C5=O)C(=O)C(C)=C(OC)C2=O [RENIERAMYCIN M],0.018,0.004
C/C=C(/C)C(=O)OC[C@H]1C2=C(C[C@H]3[C@H]4C5=C(C[C@@H]([C@H](C#N)N13)N4C)C(=O)C(C)=C(OC)C5=O)C(=O)C(C)=C(O)C2=O [RENIERAMYCIN S],0.16,0.072
C/C=C(/C)C(=O)OC[C@H]1c2c(c(O)c(C)c3c2OCO3)C[C@H]2CN(C)C[C@H](C#N)N21,> 20,> 20
C/C=C(/C)C(=O)OC[C@H]1c2c(c(OC(C)=O)c(C)c3c2OCO3)C[C@H]2[C@H]3C4=C(C[C@@H]([C@H](C#N)N12)N3C)C(=O)C(C)=C(OC)C4=O,0.032,0.032
